Assay results reported in US20050217538A1, “Modified Calcium Phosphate Bone Cement” (TECHNISCHE UNIVERSITAT DRESDEN, priority 2004, published 2005).

Experiment: pH, calcium and phosphate contents of the solution surrounding the cement during the setting process
Type: physicochemical
Experimental: The ion concentrations of the solutions surrounding the cement were determined in that during the setting process samples of the solution were taken regularly and analyzed with regard to pH value (glass electrode), calcium contents and phosphate contents (photometric method), in accordance with the procedure described in connection with Example 2. No deviations into cell and tissue damaging pH ranges (pH<7 and pH>8) were measured. The determined calcium and phosphate ion concentrations were also at a level that is well tolerated by cells and tissue.
The ion concentrations of the solution surrounding the cement were determined in that during the setting process samples of the solution were taken regularly and analyzed with regard to pH value (glass electrode), calcium contents and phosphate contents (photometric method). […]
The ion concentration of the solution surrounding the bone cement was determined in that during the setting process regularly samples of the solution were taken and analyzed with regard to pH value (glass electrode), calcium contents and phosphate contents (photometric method). […] The determined calcium and phosphate ion concentrations were also at a level that is well tolerated by cells and tissue. […]

Cc1ncc(C[n+]2csc(CCO[P@](=O)(O)OP(=O)(O)O)c2C)c(N)n1 [Thiamine pyrophosphate, thiamine pyrophosphate]
calcium concentration of the surrounding medium: approximately 2.5 mmol/l
